Blank lines part the entries; values can stand above or below the compound they belong to.
How the values were obtained:
[1] = target: T1, calcium-sensing receptor (CaSR) (Homo sapiens, UniProt P41180); assay: Ongoing open-label phase 2 proof-of-principle study in women with post-surgical hypoparathyroidism (PSH), NCT05735015; format: in vivo
T1 construct: oral CLTX-305 (encaleret) in post-surgical hypoparathyroidism subjects; clinical safety and blood calcium endpoints
T1 sequence (P41180 20-1078): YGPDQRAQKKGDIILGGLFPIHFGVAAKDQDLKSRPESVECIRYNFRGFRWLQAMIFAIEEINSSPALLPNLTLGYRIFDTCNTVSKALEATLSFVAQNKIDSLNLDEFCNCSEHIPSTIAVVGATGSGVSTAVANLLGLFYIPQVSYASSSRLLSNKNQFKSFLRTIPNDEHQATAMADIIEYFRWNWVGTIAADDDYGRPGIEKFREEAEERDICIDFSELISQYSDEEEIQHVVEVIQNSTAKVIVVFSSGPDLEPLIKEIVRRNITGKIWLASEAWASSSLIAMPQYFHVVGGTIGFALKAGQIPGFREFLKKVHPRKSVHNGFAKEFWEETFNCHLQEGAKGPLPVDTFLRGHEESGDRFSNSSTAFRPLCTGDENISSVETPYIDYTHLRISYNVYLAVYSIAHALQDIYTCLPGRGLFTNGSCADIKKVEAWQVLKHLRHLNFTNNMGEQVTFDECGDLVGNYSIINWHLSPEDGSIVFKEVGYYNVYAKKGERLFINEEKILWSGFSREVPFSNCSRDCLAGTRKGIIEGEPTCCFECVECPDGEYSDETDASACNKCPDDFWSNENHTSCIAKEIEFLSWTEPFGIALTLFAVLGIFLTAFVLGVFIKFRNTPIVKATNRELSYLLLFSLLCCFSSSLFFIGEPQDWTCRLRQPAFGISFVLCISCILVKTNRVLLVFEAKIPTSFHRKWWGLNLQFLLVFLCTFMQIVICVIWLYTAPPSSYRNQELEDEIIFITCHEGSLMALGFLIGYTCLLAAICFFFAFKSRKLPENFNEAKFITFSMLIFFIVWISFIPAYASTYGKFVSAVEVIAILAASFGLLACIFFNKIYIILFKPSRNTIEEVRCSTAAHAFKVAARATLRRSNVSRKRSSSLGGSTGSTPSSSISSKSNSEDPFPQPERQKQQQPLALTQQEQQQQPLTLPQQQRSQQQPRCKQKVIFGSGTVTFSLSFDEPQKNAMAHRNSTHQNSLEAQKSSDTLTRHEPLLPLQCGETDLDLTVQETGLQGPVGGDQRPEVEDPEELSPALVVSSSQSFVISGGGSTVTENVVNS
Text: Title: Phase 2 study of the PTH-independent Effects of formula (I) (e.g., CLTX-305) on Mineral Homeostasis in subjects with post-surgical hypoparathyroidism (PSH).
Study Description: This will be a single-site, proof-of-principle, open-label study to explore the PTH-independent effects of formula (I) (e.g., CLTX-305) on calcium homeostasis in subjects with low or undetectable PTH levels as a result of neck surgery (PSH).
Primary Endpoint: Percent change in Fractional Excretion of Calcium (FECa) from baseline (Day −1) to the final day of treatment (Day 6 or the last measurement while on formula (I) (e.g., CLTX-305)). FECa calculated using fasting blood levels and spot urine collection.
Secondary Endpoints: Proportion of subjects who achieve a concomitant normal fasting blood calcium (albumin-corrected calcium >8.5 mg/dL) and a normal 24-hour urinary calcium level (<250 mg/24 hours for women, <300 mg/24 hours for men) on formula (I) (e.g., CLTX-305) at any point between day 1 and day 5.
• Change in blood iPTH comparing average baseline iPTH to average peak iPTH on formula (I) (e.g., CLTX-305). The average baseline iPTH will include all baseline iPTH levels from the screening visit, Day −1, and pre-dose on Day 1. The average peak iPTH will average the peak iPTH levels on every day the subject is on formula (I) (e.g., CLTX-305) (days 1 to 5). An increase in iPTH will be considered clinically significant if there is an increase both by 50% AND by more than […]. • Change in 1,25-(OH)2 Vitamin D on formula (I) (e.g., CLTX-305) comparing the maximal level prior to receiving calcitriol (On Days 3-5) to baseline (Average of Day 1 Pre-dose levels). Increase will be considered significant if there is an increase of more than 50%. Subjects who receive calcitriol prior to Day 3 will be excluded. • Percent change in Fractional Excretion of Calcium (FECa) from baseline […] to the final day of treatment (Day 6 or the last measurement while n encaleret). FECa calculated using fasting blood levels and spot urine collection. • Pharmacodynamic endpoints measured over 5 days of formula (I) (e.g., CLTX-305) therapy: • Blood iPTH—Absolute levels and change from baseline • Albumin-corrected blood calcium—Absolute levels and change from baseline • Ionized Calcium—Absolute levels and change from baseline • Urinary calcium clearance (fractional excretion and 24-hour total excretion)—Absolute levels and change from baseline • Serum levels of 1,25-(OH)2 Vitamin D—Absolute levels and change from baseline • Blood intact FGF23 (iFGF23) and C-terminal FGF23 (cFGF23)—Absolute levels and change from baseline • Urine cAMP and citrate—Absolute levels and change from baseline • Blood bone resorption marker, collagen cross-linked C-telopeptide (CTx)—Absolute levels and change from baseline • Blood bone formation marker, blood procollagen type 1 N-propeptide (P1NP)—Absolute levels and change from baseline • Change in components of urine including: supersaturation, sodium, potassium, calcium, magnesium, chloride, phosphorus, sulfate, citrate excretion, oxalate, pH, uric acid, creatinine, osmolality, ammonium, urea nitrogen, protein catabolic rate • PK parameters such as maximum plasma concentration Cmax), time to maximum plasma concentration (tmax), apparent terminal half-life (t½) • Subgroup analysis of other primary, secondary, and tertiary endpoints
Intervention: CLTX-305 will be provided as an oral film-coated tablet. Each tablet contains 54 mg of formula (I) on a salt-free and anhydrous basis (i.e., 60 mg of CLTX-305). Subjects will receive 3 tablets twice a day (BID).
The investigational medicinal product (IMP), formula (I) (e.g., CLTX-305), will be provided as film-coated tablets containing the active ingredient formula (I) on a salt-free and anhydrous basis provided in 54 mg dosage strength. Subjects will receive active ingredient formula (I) 162 mg (i.e., 180 mg CLTX-305) (3 tablets) BID per protocol with water. […]

osteoporosis = conditions: late phase trials; postmenopausal women with osteoporosis; cited from earlier work
[2] = test system: calcium-sensing receptor (CaSR); conditions: individuals with functioning parathyroid tissue; calcilytics (e.g., CLTX-305); cited from earlier work
[3] = thiazide discontinuation before treatment; cited from earlier work

PTH after transient increase ([1]; after the 30 minutes increase, baseline 7.4 pg/mL, n=4): returned to near baseline levels
FECa, effect in words ([1]; first four participants with PSH): reduced FECa
Bone turnover markers ([1]; four women with PSH, 162 mg every 12 hours, up to 10 doses): normal and did not change
PTH, transient increase ([1]; mean (range), 30 minutes after the first dose, baseline 7.4 pg/mL (range 4.6-10.1; nl 15-65), n=4): 13.0 (4.5-18.1) pg/mL
Decrease in fractional excretion of calcium (FECa) ([1]; mean (range), fasting, 12 hours after last dose vs fasting baseline pre-dose, four women with PSH, CLTX-305 162 mg every 12 hours for up to 10 doses): 52% (34-78)
Albumin-corrected blood calcium ([1]; mean (range), fasting, 12 hours after last dose, baseline 8.4 mg/dL (range 8.1-8.6; nl 8.4-10.2), 162 mg every 12 hours, up to 10 doses, n=4): 9.3 (8.6-10.7) mg/dL
Urinary calcium excretion ([1]; mean (range), on treatment, baseline 348 mg/day (range 204-501; nl<250), 162 mg every 12 hours, up to 10 doses, n=4): 169 (76-350) mg/day
Participants who discontinued calcium supplementation to maintain eucalcemia ([1]; of four women with PSH, all received calcium supplementation initially): 1 participant
Participants who required re-initiation of low-dose calcitriol to maintain eucalcemia ([1]; of four women with PSH, calcitriol 0.25 mcg daily): 3
Normalization of urinary calcium excretion ([1]; of four women with PSH, nl<250 mg/day): 3 participants
24-hour urine calcium despite elevated blood calcium ([1]; one participant with mild hypercalcemia): < 200 mg/day
Time for which blood calcium continued to be mildly elevated after the last dose ([1]; one participant with mild hypercalcemia, calcium and calcitriol supplementation discontinued): 60 h
Decrease in urinary calcium excretion in the fourth participant ([1]; one participant without normalization, 162 mg every 12 hours, up to 10 doses): 30%
Structure (SMILES): Cc1cc(-c2ccccc2[C@@H](C)OC[C@H](O)CNC(C)(C)Cc2ccc(Cl)c(F)c2)ccc1C(=O)O [CLTX-305]
Serious adverse events ([1]; four women with PSH): no serious adverse events reported
Treatment-related adverse events (AEs) ([1]; four women with PSH): mild hypercalcemia causing headache in 1 participant
Bone mineral density (BMD) efficacy (osteoporosis): failed to demonstrate efficacy on endpoints of bone mineral density (BMD)
Blood calcium levels, in words [2]: increased blood calcium levels
PTH secretion [2]: increase PTH secretion
Urinary calcium excretion, in words [2]: decrease urinary calcium excretion

Structure (SMILES): NS(=O)(=O)c1cc2c(cc1Cl)N=CNS2(=O)=O [chlorothiazide]
5 half-lives [3]: 10 h

Structure (SMILES): NS(=O)(=O)c1cc(C2(O)NC(=O)c3ccccc32)ccc1Cl (stereo not shown) [chlorthalidone]
5 half-lives [3]: 300 h

Structure (SMILES): NS(=O)(=O)c1cc2c(cc1Cl)NCNS2(=O)=O [hydrochlorothiazide]
5 half-lives [3]: 75 h

— US20260294857A1, “TREATMENT OF HYPOPARATHYROIDISM USING TRIPHENYL CALCILYTIC COMPOUNDS” (CALCILYTIX THERAPEUTICS, INC., priority 2023, published 2026)
